This is an account of results in patent US20240239790A1, “7-Morpholino-1,6-Naphthyridin-5-yl Derivatives and Pharmaceutical Compositions Thereof Useful as DNA-PK Inhibitor” (adMare Therapeutics Society, priority 2021, published 2024).

Like-named read-outs stand apart in the source and are kept apart here.

Broadly, the IC50 is the point on the concentration scale where inhibition reaches its midpoint. As a reminder, the EC50 is the concentration at which the effect is half-maximal.

One assay concerns the target T1, DNA-PK (Homo sapiens, UniProt P78527).
T1 construct: purchased Invitrogen PR9107A
Put plainly: DNA-PK Assay for Biochemical Enzymatic Inhibition (ADP Glo Kinase assay). Particulars: DNA-PK enzyme. How it is done:
A biochemical assay was performed to identify IC50 values against DNA-PK activity in a two-step reaction with a kinase reaction followed by ADP Glo™ Kinase assay Kit (Promega V9102).
Three-fold serial dilutions of compounds in DMSO were prepared in kinase assay buffer (50 mM HEPES pH 7.5, 20 mM MgCl2, 100 mM KCl, 50 μM DTT, 10 μg/ml calf thymus DNA, 0.01% Tween 20). Kinase assay buffer was used to prepare compound treatments to 0.02% DMSO (dimethyl sulphoxide) content. DMSO controls were prepared to produce a maximum and minimum luminescence signal for normalization. Substrate (Anaspec, AS-60210-5) and ATP (Promega V9102) and ATP mix was prepared by dilution in kinase assay buffer for 434.4 μM and 64.4 μM final assay concentrations, respectively. Compounds and control were added to 25 ng DNA-PK enzyme (Invitrogen, PR9107A) diluted in kinase buffer in assay plate (Corning 267459) and incubated for 15 minutes at room temperature prior to addition of substrate and ATP mix.
Throughout the assay, each time a reagent was added to the microplate, it was centrifuged for 1 minute at 1300 rcf. All reagents were added, and incubations carried out at room temperature. The reaction was then incubated for 60 minutes. ADP-ATP standards at 0, 4, 10, 40, 80, and 100% ADP (prepared as specified in the ADP Glo™ Kinase assay kit) were also added to the microplate at a volume equal to the total kinase reaction. The ADP Glo™ Kinase Assay kit was then used to quantify DNA-PK activity: following the 60-minute incubation, a 1:1 volume of ADP Glo reagent was added to all wells, then following a further 45-minute incubation, a 1:1 volume of Kinase Detection Reagent was added to all wells. After this two-step assay, plates were incubated in a Synergy-Neo2 plate reader for 30 minutes with gentle shaking, followed by endpoint luminescent read Luminescence data was normalized by subtracting the background signal and expressing all background-adjusted values as a percentage of the average maximum signal. The data was then expressed as percent inhibition by subtracting from 100% (i.e. maximum luminescent signal will be 0% inhibition) and the resulting data plotted against ten concentration points on a logarithmic scale, using GraphPad Prism. Non-linear regression analysis was performed on each concentration response curve and the log [inhibitor] vs response—variable slope (four parameters) equation was selected to generate IC50 values.
On the technique in general: ADP-Glo first removes unused ATP, then detects ADP through luciferase.

Assay [1] has as its target T2, DNA-PK phosphorylation at Serine 2056 (Homo sapiens, UniProt P78527).
T2 construct: FaDu cells were purchased from ATCC; host or cells: FaDu
Put plainly: Cellular Assay for Inhibition of DNA-PK Phosphorylation at Serine 2056 in FaDu cells (sandwich ELISA, neocarzinostatin). The settings on record: pSer2056 DNA-PK. Type of assay: cell-based. In short, it runs like this:
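FaDu cells pre-treated with compound (0.3% DMSO) for 1 h, then neocarzinostatin 1 μg/mL final added for 2 h to induce DSBs. Protein-normalised lysates read by sandwich ELISA for total and pSer2056 DNA-PK; % inhibition normalised between DMSO and NCS controls, IC50 from variable-slope log(inhibitor) fit.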
Background: An ELISA detects its analyte on a solid surface through an enzyme-linked reagent.

Assay [2] deals with pH2AX induction in HCT116 ATM-/- multicellular tumour spheroids. Put plainly: Prodrug Radiation Sensitization in Multicellular Tumour Spheroids, inhibition of pH2AX induction following radiation. Format: cell-based. A digest of the protocol: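 HCT116 and FaDu spheroids (~0.5 mm diameter), ATM-deficient lines included, in MEM/10% FBS/10 mM glucose at 37 °C under 20% vs 5% oxygen with stirring. Prodrugs 10 μM down to 3.5 nM, 20 Gy irradiation. pDNA-PK (ser 2056) or pH2AX (ser 139) scored in formalin-fixed cryosections 1 or 2 h post-radiation.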

The mark [3] stands for this setting: neocarzinostatin 1 μg/mL, Table 1.

Regarding `Cn1cc([C@H]2CC[C@@H](Oc3nc(N4CCOCC4)cc4ncc(OCCN5CCOCC5)cc34)CC2)cn1` [Compound 6, 4-(5-(((1s,4s)-4-(1-methyl-1H-pyrazol-4-yl)cyclohexyl)oxy)-3-(2-morpholinoethoxy)-1,6-naphthyridin-7-yl)morpholine], the IC50 at DNA-PK (Table 1) is 0.01 to 0.15 µM; in assay [1] (setting [3]), 0.1 to 1 µM.

As for `FC1(F)CN(c2cc3ncccc3c(O[C@H]3CC[C@@H](n4ccnc4)CC3)n2)CC(F)(F)O1` [Compound 13, 4-(5-(((1s,4s)-4-(1H-imidazol-1-yl)cyclohexyl)oxy)-1,6-naphthyridin-7-yl)-2,2,6,6-tetrafluoromorpholine], on DNA-PK (Table 1), the IC50 was in the range of 0.01 to 0.15 µM.

On to `CN(C)C(=O)COc1ccc(N[C@H]2CC[C@@H](Oc3nc(N4CCOCC4)cc4ncccc34)CC2)nn1` [Compound 57, N,N-dimethyl-2-((6-(((1s,4s)-4-((7-morpholino-1,6-naphthyridin-5-yl)oxy)cyclohexyl)amino)pyridazin-3-yl)oxy)acetamide], for which the IC50 lay in the range of 0.01 to 0.15 µM on DNA-PK (Table 1) and 10 to 30 µM in assay [1] (setting [3]).

With `COCC(=O)N[C@H]1CC[C@@H](Oc2nc(N3CCOCC3)cc3ncccc23)CC1` [Compound 105, 2-Methoxy-N-((1s,4s)-4-((7-morpholino-1,6-naphthyridin-5-yl)oxy)cyclohexyl)acetamide], the 50% inhibitory concentration (IC50) at DNA-PK (Table 1) fell in the range of 0.001 to 0.01 µM; in assay [1] (setting [3]), 0.1 to 1 µM.

For `CN(C)CC(=O)N[C@H]1CC[C@@H](Oc2nc(N3CCOCC3)cc3ncccc23)CC1` [Compound 106, 2-(Dimethylamino)-N-((1s,4s)-4-((7-morpholino-1,6-naphthyridin-5-yl)oxy)cyclohexyl)acetamide], on DNA-PK (Table 1), the IC50 is 0.01 to 0.15 µM.

As for `N#CCC(=O)N[C@H]1CC[C@@H](Oc2nc(N3CCOCC3)cc3ncccc23)CC1` [Compound 107, 2-Cyano-N-((1s,4s)-4-((7-morpholino-1,6-naphthyridin-5-yl)oxy)cyclohexyl)acetamide], the IC50 lay in the range of 0.001 to 0.01 µM at DNA-PK (Table 1) and 0.1 to 1 µM in assay [1] (setting [3]).

On to `CN(C)C(=N[C@H]1CC[C@@H](Oc2nc(N3CCOCC3)cc3ncccc23)CC1)N(C)C` [Compound 129, 1,1,3,3-tetramethyl-2-((1s,4s)-4-((7-morpholino-1,6-naphthyridin-5-yl)oxy)cyclohexyl)guanidine], for which the IC50 at DNA-PK (Table 1) lay in the range of 0.01 to 0.15 µM.

For `O=C(NC1CCOCC1)[C@H]1CC[C@@H](Oc2nc(N3CCOCC3)cc3ncccc23)CC1` [Compound 154b, (1S,4S)-4-((7-morpholino-1,6-naphthyridin-5-yl)oxy)-N-(tetrahydro-2H-pyran-4-yl)cyclohexane-1-carboxamide], the IC50 at DNA-PK (Table 1) was in the range of 0.01 to 0.15 µM.

As for `CC(C)(O)C#Cc1cnc2cc(N3CCOCC3)nc(O[C@H]3CC[C@@H](n4ccnc4)CC3)c2c1` [Compound 159, 4-(5-(((1s,4s)-4-(1H-imidazol-1-yl)cyclohexyl)oxy)-7-morpholino-1,6-naphthyridin-3-yl)-2-methylbut-3-yn-2-ol], the IC50 on DNA-PK (Table 1) fell in the range of 0.01 to 0.15 µM.

As for `CCOC(=O)c1cnc2cc(N3CCOCC3)nc(O[C@H]3CC[C@@H](n4ccnc4)CC3)c2c1` [Compound 163, ethyl 5-(((1s,4s)-4-(1H-imidazol-1-yl)cyclohexyl)oxy)-7-morpholino-1,6-naphthyridine-3-carboxylate], the IC50 is 0.01 to 0.15 µM on DNA-PK (Table 1) and 1 to 10 µM in assay [1] (setting [3]).

`CCNC(=O)c1cnc2cc(N3CCOCC3)nc(O[C@H]3CC[C@@H](n4ccnc4)CC3)c2c1` [Compound 168, 5-(((1s,4s)-4-(1H-imidazol-1-yl)cyclohexyl)oxy)-N-ethyl-7-morpholino-1,6-naphthyridine-3-carboxamide]: the IC50 at DNA-PK (Table 1) is 0.01 to 0.15 µM.

Take `CN(C)C(=O)c1cnc2cc(N3CCOCC3)nc(O[C@H]3CC[C@@H](n4ccnc4)CC3)c2c1` [Compound 170, 5-(((1s,4s)-4-(1H-imidazol-1-yl)cyclohexyl)oxy)-N,N-dimethyl-7-morpholino-1,6-naphthyridine-3-carboxamide]: at DNA-PK (Table 1), the IC50 was 0.01 to 0.15 µM.

`CN(C)C(=O)COc1cnc(NC2CCC(Oc3nc(N4CCOCC4)cc4ncc(N(Cc5ncc([N+](=O)[O-])n5C)S(C)(=O)=O)cc34)CC2)nc1` (stereo not shown) [LFA013, N,N-Dimethyl-2-[2-[[4-[[3-[(1-methyl-5-nitro-imidazol-2-yl)methyl-methylsulfonyl-amino]-7-morpholino-1,6-naphthyridin-5-yl]oxy]cyclohexyl]amino]pyrimidin-5-yl]oxy-acetamide]: the IC50 was in the range of 0.01 to 0.15 µM on DNA-PK (Table 2) and 1 to 10 µM in assay [1] (Table 2). Besides, the EC50 was in the range of 0.01 to 0.5 µM in assay [2] (20 Gy, 5% O2, inner layers, read-out: Prodrug 5% O2 Inner layers EC50); 1 to 10 µM in assay [2] (20 Gy, 5% O2, outer layers, read-out: Prodrug 5% O2 Outer layers EC50); 1 to 10 µM in assay [2] (20 Gy, 20% O2, outer layers, read-out: Prodrug 20% O2 Outer layers EC50); 0.01 to 0.5 µM in assay [2] (value of the (unnamed) effector of the listed prodrug, 20 Gy, 5% O2, inner layers, read-out: Effector 5% O2 Inner layers EC50).

For the molecule `Cn1c(COC(=O)Nc2cnc3cc(N4CCOCC4)nc(O[C@H]4CC[C@@H](Nc5ncccn5)CC4)c3c2)cnc1[N+](=O)[O-]` [LFA108, (3-methyl-2-nitro-imidazol-4-yl)methyl N-[7-morpholino-5-[4-(pyrimidin-2-ylamino)cyclohexoxy]-1,6-naphthyridin-3-yl]carbamate], the IC50 lay within 0.01 to 0.15 µM at DNA-PK (Table 2) and 10 to 30 µM in assay [1] (Table 2). The EC50 in assay [2] (Homo sapiens, HCT-116, 20 Gy, 5% O2, inner layers, read-out: Prodrug 5% O2 Inner layers EC50) was in the range of 0.01 to 0.5 µM; in assay [2] (Homo sapiens, HCT-116, 20 Gy, 5% O2, outer layers, read-out: Prodrug 5% O2 Outer layers EC50) it was 0.5 to 1 µM; in assay [2] (Homo sapiens, HCT-116, 20 Gy, 20% O2, outer layers, read-out: Prodrug 20% O2 Outer layers EC50), 1 to 10 µM.
